Measurements from patent US8389554B2, “Imidazothiadiazole derivatives” (Merck Patent Gesellschaft mit Beschränkter Haftung, priority 2008, dated 2013).

Molecular target: T1, GST-ALK5 (Homo sapiens, UniProt P36897)
T1 sequence (P36897 34-503): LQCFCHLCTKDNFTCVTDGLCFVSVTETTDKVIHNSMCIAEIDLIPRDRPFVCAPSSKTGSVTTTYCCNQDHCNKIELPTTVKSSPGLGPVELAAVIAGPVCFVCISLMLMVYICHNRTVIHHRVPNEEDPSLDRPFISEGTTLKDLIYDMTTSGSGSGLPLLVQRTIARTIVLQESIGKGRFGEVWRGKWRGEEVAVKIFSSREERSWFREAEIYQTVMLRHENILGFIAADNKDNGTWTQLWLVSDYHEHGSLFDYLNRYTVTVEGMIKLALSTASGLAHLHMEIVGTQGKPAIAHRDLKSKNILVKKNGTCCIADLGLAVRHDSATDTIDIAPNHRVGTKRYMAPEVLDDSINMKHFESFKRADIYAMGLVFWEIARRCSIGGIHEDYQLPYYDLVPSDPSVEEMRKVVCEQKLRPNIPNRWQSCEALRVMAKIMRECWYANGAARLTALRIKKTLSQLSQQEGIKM
Assay: In-vitro (enzyme) flashplate kinase assay, inhibition of TGF-beta receptor I kinase
Type: biochemical
Settings: 384-well flashplate, GST-ALK5, GST-SMAD2 substrate, 3 mM ATP, 30° C., 45 min
Procedure: In-Vitro (Enzyme) Assay for Determination of the Efficacy of Inhibitors of the Inhibition of TGF-Beta-Mediated Effects
The kinase assay was carried out as 384-well flashplate assay. 31.2 nM of GST-ALK5, 439 nM of GST-SMAD2 and 3 mM of ATP (with 0.3 μCi of ^33P-ATP/well) were incubated in a total volume of 35 μl (20 mM of HEPES, 10 mM of MgCl2, 5 mM of MnCl2, 1 mM of DTT, 0.1% of BSA, pH 7.4) without or with test substance (5-10 concentrations) at 30° C. for 45 min. The reaction was stopped using 25 μl of 200 mM EDTA solution, filtered with suction at room temperature after 30 min, and the wells were washed with 3 times 100 μl of 0.9% NaCl solution. Radioactivity was measured in the TopCount. The IC50 values were calculated using RS1 (Table 1). Above and below, all temperatures were indicated in ° C.

| Compound | IC50 |
| --- | --- |
| COc1cc(-c2cnc3sc(NCCN4CCOCC4)nn23)cc(OC)c1OC [No 495, (2-Morpholin-4-yl-ethyl)-[5-(3,4,5-trimethoxy-phenyl)-imidazo[2,1-b][1,3,4]thiadiazol-2-yl]-amine] | 490 nM |
| COc1cc(-c2cnc3sc(NCCc4ccncc4)nn23)cc(OC)c1OC [No 442, (2-Pyridin-4-yl-ethyl)-[5-(3,4,5-trimethoxy-phenyl)-imidazo[2,1-b][1,3,4]thiadiazol-2-yl]-amine] | 480 nM |
| COc1cc(-c2cnc3sc(NCCCO)nn23)cc(OC)c1OC [No 456, 3-[5-(3,4,5-Trimethoxy-phenyl)-imidazo[2,1-b][1,3,4]thiadiazol-2 - ylamino]-propan-1-ol] | 740 nM |
| COc1cc(-c2cnc3sc(NCCc4ccc(S(N)(=O)=O)cc4)nn23)cc(OC)c1OC [No 464, 4-{2-[5-(3,4,5-Trimethoxy-phenyl)-imidazo[2,1-b][1,3,4]thiadiazol-2-ylamino]-ethyl}-benzenesulfonamide] | 160 nM |
| COc1cc(-c2cnc3sc(NCc4cccs4)nn23)ccc1O [No 307, 2-Methoxy-4-{2-[(thiophen-2-ylmethyl)-amino]-imidazo[2,1-b][1,3,4]thiadiazol-5-yl}-phenol] | 740 nM |
| COc1cc(-c2cnc3sc(NCCOc4ccccc4)nn23)cc(OC)c1OC [No 277, (2-Phenoxy-ethyl)-[5-(3,4,5-trimethoxy-phenyl)-imidazo[2,1-b][1,3,4]thiadiazol-2-yl]-amine] | 780 nM |
| CC(=O)c1cccc(-c2cnc3sc(NCCc4ccc(S(N)(=O)=O)cc4)nn23)c1 [No 490, 4-{2-[5-(3-Acetyl-phenyl)-imidazo[2,1-b][1,3,4]thiadiazol-2-ylamino]-ethyl}-benzenesulfonamide] | 360 nM |
| COc1cc(-c2cnc3sc(NCCc4ccccn4)nn23)cc(OC)c1OC [No 20, (2-Pyridin-2-yl-ethyl)-[5-(3,4,5-trimethoxy-phenyl)-imidazo[2,1-b][1,3,4]thiadiazol-2-yl]-amine] | 270 nM |
| CC(=O)c1cccc(-c2cnc3sc(NCCc4ccncc4)nn23)c1 [No 360] | 700 nM |
| COc1cc(-c2cnc3sc(NCC4CCOCC4)nn23)cc(OC)c1OC [No 274, (Tetrahydro-pyran-4-ylmethyl)-[5-(3,4,5-trimethoxy-phenyl)-imidazo[2,1-b][1,3,4]thiadiazol-2-yl]-amine] | 810 nM |
| COc1cc(-c2cnc3sc(NC4CCC(O)CC4)nn23)cc(OC)c1OC (stereo not shown) [No 363, 4-[5-(3,4,5-Trimethoxy-phenyl)-imidazo[2,1-b][1,3,4]thiadiazol-2-ylamino]-cyclohexanol] | 570 nM |

Further compounds by falling IC50, results first:

| IC50 | Compound |
| --- | --- |
| 820 nM | COc1cc(-c2cnc3sc(NCC(C)C)nn23)cc(OC)c1OC [No 266, Isobutyl-[5-(3,4,5-trimethoxy-phenyl)-imidazo[2,1-b][1,3,4]thiadiazol-2-yl]-amine] |
| 780 nM | CC(=O)c1cccc(-c2cnc3sc(NCCN4CCOCC4)nn23)c1 [No 158, 1-{3-[2-(2-Morpholin-4-yl-ethylamino)-imidazo[2,1-b][1,3,4]thiadiazol-5-yl]-phenyl}-ethanone] |
| 670 nM | COc1cc(-c2cnc3sc(NCc4cccnc4)nn23)cc(OC)c1OC [No 416, Pyridin-3-ylmethyl-[5-(3,4,5-trimethoxy-phenyl)-imidazo[2,1-b][1,3,4]thiadiazol-2-yl]-amine] |
| 330 nM | COc1cc(-c2cnc3sc(NCc4cccs4)nn23)cc(OC)c1OC [No 165, Thiophen-2-ylmethyl-[5-(3,4,5-trimethoxy-phenyl)-imidazo[2,1-b][1,3,4]thiadiazol-2-yl]-amine] |
| 240 nM | Cc1cc(-c2cnc3sc(NCc4ccco4)nn23)cc(C)c1O [No 38, 4-{2-[(Furan-2-ylmethyl)-amino]-imidazo[2,1-b][1,3,4]thiadiazol-5-yl}-2,6-dimethyl-phenol] |
